Here are results for one compound from patent US7030265B2, “Retinol derivatives, the method of preparations and the uses thereof” (Chebigen, Inc., priority 2001, dated 2006).

Common to all, as to assay type: cell-based
One series relates to SK-Hep-1 (liver cancer). The series can be described thus: Cell toxicity test (living cell count). As to conditions: SK-Hep-1 cells, 0, 500, 1000, 5000 nM, 4 days, FIG. 1. The protocol: (§1) The cell line utilized for cell toxicity test of retinal derivatives were SK-Hep-1(liver cancer), MDA-MB-231 (breast cancer), HaCAT (skin cancer), and HCT116 (colon cancer). Those cell lines were maintained and cultured in DMEM (Dulbecco's Modified Eagle's Medium)/10% FBS containing 10% fetal bovine serum (FBS) (GibcoBRL, Gaithersburg, Md.). 3×10^3 cells, 100 μl media per well were distribute into 96 well microtiter plate and cultured for 24 hours. Each cultured cell lines were treated with various concentrations of retinal derivatives (0, 500, 1000, 5000 nM) for 4 days and living cells were counted with hemocytometer to measure the inhibition effect of cell proliferation.
(§2) The retinal derivatives utilized for the experiments were retinol-(N-formyl-aspartam), retinol, 4-HPR[N-(4-hydroxyphenyl)retineamide] (Sigma Co., St. Louis, Mo.). Those derivatives were eluted in dimethylsulfoxide and the concentration of dimethylsulfoxide added into culture media was kept at not over 0.01%.

Series [1] has as its system MDA-MB-231 (breast cancer). As to the kind of experiment: Cell toxicity test (living cell count). As to conditions: MDA-MB-231 cells, 0, 500, 1000, 5000 nM, 4 days, FIG. 1. The protocol: as §1, §2
A further series deals with HCT116 (colon cancer). The series can be described thus: Cell toxicity test (living cell count). As to conditions: HCT116 cells, 0, 500, 1000, 5000 nM, 4 days, FIG. 1. The protocol: as §1, §2
Another series has as its system HaCAT (skin cancer). The series can be described thus: Cell toxicity test (living cell count). As to conditions: HaCAT cells, 0, 500, 1000, 5000 nM, 4 days, FIG. 1. As for the experimental part:
as §1, §2

In a further series the target is T1, retinoid X receptor γ (Homo sapiens, UniProt P48443).
T1 construct: expressed in transfected cells; host or cells: HaCAT
T1 sequence (P48443 1-463): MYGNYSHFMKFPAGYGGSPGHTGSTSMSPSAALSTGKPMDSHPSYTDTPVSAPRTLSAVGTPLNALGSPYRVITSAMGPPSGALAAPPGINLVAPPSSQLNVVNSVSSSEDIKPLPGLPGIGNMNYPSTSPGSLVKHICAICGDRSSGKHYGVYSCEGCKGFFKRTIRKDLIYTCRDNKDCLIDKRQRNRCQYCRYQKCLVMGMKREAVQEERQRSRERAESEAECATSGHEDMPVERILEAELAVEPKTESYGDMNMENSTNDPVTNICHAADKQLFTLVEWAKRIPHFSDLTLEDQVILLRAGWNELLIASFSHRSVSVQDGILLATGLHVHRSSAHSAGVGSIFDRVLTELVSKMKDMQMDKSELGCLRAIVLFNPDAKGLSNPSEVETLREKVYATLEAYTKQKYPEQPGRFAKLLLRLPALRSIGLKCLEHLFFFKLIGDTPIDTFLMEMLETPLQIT
As to the kind of experiment: RXR activity test, DR1-tk-CAT reporter in HaCAT cells. Conditions: 1 μM, CAT ELISA, FIG. 2 (B). An excerpt:
(§3) To analyze the effects of retinol-(N-formyl-aspartam) on the activity of retinoic acid receptor, skin cancer (HaCAT) cell lines were utilized to measure the activity of retinoic acid receptor/retinoid X receptor.
(§4) Recombinant DNA, DR5-tk-CAT or DR1-tk-CAT consisting of DR1 or DR5, effectors of retinoic acid receptor/retinoid X receptor, thymine kinase promoter, and CAT(chloramphenicol acetyl transferase) were mixed with the plasmid DNA expressing retinoic acid receptor α, β, ? or retinoid X receptor α, β, ? to cotransfect skin cancer (HaCAT) cell line with lipofectamine (GibcoBRL). The cotransfected cell lines were cultured for 1 day on DMEM/10% FBS media, each retinol derivatives (1 μM) were added and cultured for one more day, 5% CO2, 37° C. The cells were washed with phosphate-buffered saline (PBS), and the proteins were isolated from each cells, and the activity of β-galactosidase and protein contents were measured to determine transfection efficacy, the transcription level of RAR or RXR receptor were measured with CAT ELISA (Roche Molecular Biochemical, Mannheim, Germany).
A general note: In an ELISA, binding on a coated surface is turned into a signal by an enzyme label.

The target in a further series is T2, retinoid X receptor β (Homo sapiens, UniProt P28702).
T2 construct: expressed in transfected cells; host or cells: HaCAT
T2 sequence (P28702 1-533): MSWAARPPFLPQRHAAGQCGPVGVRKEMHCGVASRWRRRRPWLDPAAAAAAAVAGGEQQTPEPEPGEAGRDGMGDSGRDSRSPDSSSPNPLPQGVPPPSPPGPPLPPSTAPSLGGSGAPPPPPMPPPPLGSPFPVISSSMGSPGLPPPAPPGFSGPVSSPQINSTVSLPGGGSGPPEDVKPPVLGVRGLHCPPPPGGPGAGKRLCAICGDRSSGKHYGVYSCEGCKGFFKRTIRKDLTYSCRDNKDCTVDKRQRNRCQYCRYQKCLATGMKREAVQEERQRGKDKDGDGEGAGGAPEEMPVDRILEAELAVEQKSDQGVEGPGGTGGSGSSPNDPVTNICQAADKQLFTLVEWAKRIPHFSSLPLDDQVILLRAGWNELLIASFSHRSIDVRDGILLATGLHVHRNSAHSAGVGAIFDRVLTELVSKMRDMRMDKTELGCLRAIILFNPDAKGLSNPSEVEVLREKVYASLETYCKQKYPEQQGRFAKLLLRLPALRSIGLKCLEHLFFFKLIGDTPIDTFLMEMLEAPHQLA
The series is described as above. Conditions: 1 μM, CAT ELISA, FIG. 2 (B).
Description: as §3, §4

A further series deals with T3, retinoid X receptor α (Homo sapiens, UniProt P19793).
T3 construct: expressed in transfected cells; host or cells: HaCAT
T3 sequence (P19793 1-462): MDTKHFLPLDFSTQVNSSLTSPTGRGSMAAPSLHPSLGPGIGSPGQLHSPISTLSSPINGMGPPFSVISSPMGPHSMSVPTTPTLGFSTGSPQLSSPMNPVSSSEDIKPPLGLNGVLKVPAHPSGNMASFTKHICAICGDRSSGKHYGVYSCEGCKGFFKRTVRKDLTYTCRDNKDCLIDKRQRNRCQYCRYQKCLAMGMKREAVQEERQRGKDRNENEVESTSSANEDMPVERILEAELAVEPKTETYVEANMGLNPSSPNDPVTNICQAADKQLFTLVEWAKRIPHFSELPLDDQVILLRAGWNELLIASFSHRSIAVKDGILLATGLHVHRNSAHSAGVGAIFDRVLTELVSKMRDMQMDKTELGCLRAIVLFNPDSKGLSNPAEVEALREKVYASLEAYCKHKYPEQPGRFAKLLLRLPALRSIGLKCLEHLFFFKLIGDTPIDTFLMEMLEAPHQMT
The description is as above. Conditions: 1 μM, CAT ELISA, FIG. 2 (B).
Description: as §3, §4

For series [2], the system named is activation protein-1 (AP-1). The series can be described thus: Activity inhibition test of AP-1, Coll-CAT reporter in Cos-1 cells. As to conditions: expression level in the presence of c-Jun expression set as 100%. An excerpt:
CAT reporter (Coll-CAT) containing collagen promoter including AP-1 transcription factor binding site (TRE) was utilized to transfect Cos-1 cell line. Activity inhibition tests of activation protein-1 (AP-1) similar to the experimental example 6 were proceeded.

Consider `COC(=O)C(Cc1ccccc1)NC(=O)[C@H](CC(=O)OC/C=C(C)/C=C/C=C(C)/C=C/C1=C(C)CCCC1(C)C)NC=O` (stereo partly drawn) [retinol-(N-formyl-aspartam), (2E,4E,6E,8E)-3,7-dimethyl-9-(2,6,6-trimethyl-1-cyclohexenyl)-2,4,6,8-nonatetraenyl(3S)-4-[(1-benzyl-2-methoxy-2-oxoethyl)amino]-3-formylamino-4-oxobutanoate], for which the “cell toxicity (inhibition of cell proliferation)” value is reported as “no toxicity” with SK-Hep-1 (liver cancer), “no toxicity” in series [1], “less toxicity than retinol” in the series with HCT116 (colon cancer) and “no toxicity” in the series with HaCAT (skin cancer). In addition, the “activation of retinoid X receptor γ” value at retinoid X receptor γ was “no activation”. Also, the “activation of retinoid X receptor β” value on retinoid X receptor β is “no activation”. In addition, at retinoid X receptor α, the “activation of retinoid X receptor α” value was “no activation”. Moreover, the “lowered the expression of collagenase (Coll-CAT)” value in series [2] was “approximately 42%”.
